According to patent publication US20050131029A1, “Immunophilin ligand treatment of antiretroviral toxic neuropathy” (priority 2003, published 2005):

How the values were obtained:
[1] = system: Schwann cells; assay: Cell death in Schwann cells of the co-cultures; assay type: cell-based, rat; conditions: ddC dose of 1 mM (data not shown)
[2] = system: primary DRG sensory neurons; assay type: cell-based, rat; conditions: for relative neurotoxicity (potency in inhibiting neuritic outgrowth): comparison between NRTIs
[3] = system: primary DRG sensory neurons; conditions: rat, 4 h
[4] = system: Schwann cells
[5] = system: primary DRG sensory neurons; assay type: cell-based
[6] = system: primary DRG sensory neurons; assay: Neuronal mitochondrial toxicity assay (JC-1 red:green fluorescence in TTC-labeled neurons); conditions: 4 hours; NRTIs 1-100 μM, FCCP 25 μM
[7] = NRTI 1-100 μM added at 3 hours, 15 hours of further incubation

For `Nc1ccn([C@H]2CC[C@@H](CO)O2)c(=O)n1` [ddC, 2′,3′-dideoxycytidine], the “cell death in Schwann cells” value [1] was “no cell death”, the “effect on neuritic morphology” value [2, 7] was “frank neuritic degeneration was also seen” and the “total neuritic length and number of neurites per neuron” value [2, 7] was “dose-dependent reduction”. The “relative neurotoxicity (potency in inhibiting neuritic outgrowth)” value [2] was “most neurotoxic”, the “concentration achieving the same level of mitochondrial membrane depolarization as (25 μM) FCCP” value [3] was 1000 nM and the “mitochondrial depolarization in Schwann cells” value [4] was “no evidence of mitochondrial depolarization”. For the same compound, the “TUNEL staining of neurons (marker of apoptosis)” value ([5]; ddC 10 μM, 18 hours (data not shown)) was “lack of DNA laddering” and the “neuronal cell death (percentage of neurons labeling with live-cell marker)” value ([5]; exposure for 18 hours, varying doses) was “higher doses of ddC were associated with a lower percentage of neurons labeling with the “live-cell” marker”.

In the case of `O=c1[nH]cnc2c1ncn2[C@H]1CC[C@@H](CO)O1` [ddl, didanosine], the “concentration achieving the same level of mitochondrial membrane depolarization as (25 μM) FCCP” value [3] is reported as 1000 nM.

`Cc1cn([C@H]2C[C@H](N=[N+]=[N-])[C@@H](CO)O2)c(=O)[nH]c1=O` [AZT, zidovudine] was tested, and the “effect on neuritic morphology” value [2, 7] was “did not have any appreciable effect on neuritic morphology, even at high doses” and the “relative neurotoxicity (potency in inhibiting neuritic outgrowth)” value [2] was “did not exert significant neurotoxicity”.

In the case of `N#CC(C#N)=NNc1ccc(OC(F)(F)F)cc1` [FCCP], the “JC-1 red:green luminosity ratio (mitochondrial membrane potential differential)” value [6] is reported as “loss of mitochondrial membrane potential”.

`C=CC[C@@H]1/C=C(\C)C[C@H](C)C[C@H](OC)[C@H]2O[C@@](O)(C(=O)C(=O)N3CCCC[C@H]3C(=O)O[C@H](/C(C)=C/[C@@H]3CC[C@@H](O)[C@H](OC)C3)[C@H](C)[C@@H](O)CC1=O)[C@H](C)C[C@@H]2OC` [FK506] was tested, and the “concentrations at which prevention of neuronal cell death was most prominent” value ([5]; ddC 10 μM, 18 hours) was 10 to 100 nM.
